Reference: ChEMBL document CHEMBL4706653, “Ultra-short lipopeptides against gram-positive bacteria while alleviating antimicrobial resistance” (Eur J Med Chem, 2021)
In brackets after ≈: the same amount, converted by molar mass. Activity calls are given as the source filed them. No cut-off for these calls is given here. Residues, ends and D or L forms follow the SMILES beside them. *: point of attachment. Myristoyl = CCCCCCCCCCCCCC(=O)*; Lauroyl = CCCCCCCCCCCC(=O)*

Tests used:
Staphylococcus aureus [1] = test: Antimicrobial activity against methicillin-resistant Staphylococcus aureus 113 after 18 hrs by broth microdilution method; assay type: functional
[2] = Stability in mouse serum assessed as parent compound remaining at volume ratio of 1:19 measured after 6 hrs by RP-HPLC analysis; assay type: ADME, cell-free; settings: read-out: Stabilty
Staphylococcus aureus [3] = test: Antimicrobial activity against Staphylococcus aureus ATCC 25923 assessed as reduction in bacterial growth at 0.5 times MIC preincubated for 4 hrs followed by replating on MHB agar and measured after 24 hrs by time kill assay; assay type: functional, organism-based; settings: time 28.0 hrs
Staphylococcus aureus [4] = test: Antimicrobial activity against Staphylococcus aureus ATCC 25923 assessed as bacterial killing at 4 times MIC preincubated for 30 mins followed by replating on MHB agar and measured after 24 hrs by time kill assay; assay type: functional, organism-based; settings: time 24.5 hrs
Staphylococcus aureus [5] = test: Antimicrobial activity against Staphylococcus aureus ATCC 25923 assessed as bacterial killing at 2 times MIC preincubated for 2 hrs followed by replating on MHB agar and measured after 24 hrs by time kill assay; assay type: functional, organism-based; settings: time 26.0 hrs
Staphylococcus aureus [6] = test: Antimicrobial activity against Staphylococcus aureus ATCC 25923 assessed as reduction in bacterial growth at 0.5 to 1 times MIC preincubated for 4 hrs followed by replating on MHB agar and measured after 24 hrs by time kill assay; assay type: functional, organism-based; settings: time 28.0 hrs
Staphylococcus aureus [7] = test: Antimicrobial activity against ciprofloxacin-resistant Staphylococcus aureus ATCC 25923 after 18 hrs in presence of polymyxin B by checkerboard assay; assay type: functional, organism-based
Cell membrane [8] = test: Induction of cytoplasmic membrane disruption in Staphylococcus aureus ATCC 25923 measured for 15 mins by DiSC3-5 dye based fluorescence assay
Cell membrane [9] = test: Induction of membrane disruption in Staphylococcus aureus ATCC 25923 assessed as PI-positive cells at 4 times MIC measured after 30 mins by propidium iodide staining based flow cytometry relative to control
HEK-293T = test: Cytotoxicity against HEK293T cells assessed as reduction in cell viability at 64 to 128 uM measured after 24 hrs by MTT assay; assay type: cell-based; settings: human, dose 64-128 µM
[10] = Stability in mouse serum assessed as drug degradation at volume ratio of 1:19 measured after 6 hrs by RP-HPLC analysis; assay type: ADME, cell-free; settings: read-out: Drug degradation
Staphylococcus aureus [11] = test: Antimicrobial activity against Staphylococcus aureus ATCC 25923 assessed as bacterial killing at 2 to 4 times MIC preincubated for 30 mins followed by replating on MHB agar and measured after 24 hrs by time kill assay; assay type: functional, organism-based; settings: time 24.5 hrs
Staphylococcus aureus [12] = test: Antimicrobial activity against Staphylococcus aureus ATCC 25923 assessed as bacterial killing at MIC preincubated for 1 hr followed by replating on MHB agar and measured after 24 hrs by time kill assay; assay type: functional, organism-based; settings: time 25.0 hrs
Staphylococcus aureus [13] = test: Antimicrobial activity against Staphylococcus aureus ATCC 25923 assessed as bacterial killing at 0.5 times MIC preincubated for 4 hrs followed by replating on MHB agar and measured after 24 hrs by time kill assay; assay type: functional, organism-based; settings: time 28.0 hrs
Cell membrane [14] = test: Induction of cytoplasmic membrane disruption in Staphylococcus aureus ATCC 25923 at 0.5 to 4 times MIC measured for 15 mins by DiSC3-5 dye based fluorescence assay
[15] = Cytotoxicity against HEK293T cells assessed as cell viability at 128 uM measured after 24 hrs by MTT assay relative to control; assay type: cell-based, HEK-293T; settings: human, read-out: Activity
[16] = Toxicity in BALB/c mouse assessed as effect on body weight at 20 to 80 mg/kg, ip administered as single dose measured for 5 days; assay type: organism-based; settings: in vivo, 120 h, dose 20-80 mg/kg, time 5 day
[17] = Toxicity in BALB/c mouse assessed as ruffled fur at 80 mg/kg, ip administered as single dose measured for 5 days; assay type: organism-based; settings: in vivo, 120 h, time 5 day
[18] = Toxicity in BALB/c mouse assessed as effect on motility at 80 mg/kg, ip administered as single dose measured for 5 days; assay type: organism-based; settings: in vivo, 120 h, time 5 day
[19] = Toxicity in BALB/c mouse assessed as inflammatory cell infiltration in liver at 80 mg/kg, ip administered as single dose measured after 5 days; assay type: organism-based; settings: in vivo, 120 h, time 5 day
[20] = Toxicity in BALB/c mouse assessed as inflammatory cell infiltration in liver at 20 to 40 mg/kg, ip administered as single dose measured after 5 days; assay type: organism-based; settings: in vivo, 120 h, dose 20-40 mg/kg, time 5 day
[21] = Toxicity in BALB/c mouse assessed as swelling of renal tubular epithelial cells at 80 mg/kg, ip administered as single dose measured after 5 days; assay type: organism-based; settings: in vivo, 120 h, time 5 day
[22] = Toxicity in BALB/c mouse assessed as eosinophilic mass in the renal tubular lumen at 80 mg/kg, ip administered as single dose measured after 5 days; assay type: organism-based; settings: in vivo, 120 h, time 5 day
Staphylococcus aureus [23] = test: Antimicrobial activity against Staphylococcus aureus ATCC 25923 infected in neutropenia BALB/c mouse assessed as reduction in lung bacterial load at 10 to 20 mg/kg, ip administered staring from 2 hrs post infection and measured 8 hrs post-infected; assay type: functional, organism-based; settings: dose 10-20 mg/kg, time 6.0 hrs
Staphylococcus aureus [24] = test: Antimicrobial activity against Staphylococcus aureus ATCC 25923 infected in neutropenia BALB/c mouse assessed as reduction in bacterial load in spleen at 10 to 20 mg/kg, ip administered staring from 2 hrs post infection and measured 8 hrs post-infected; assay type: functional, organism-based; settings: dose 10-20 mg/kg, time 6.0 hrs
Staphylococcus aureus [25] = test: Antimicrobial activity against Staphylococcus aureus ATCC 25923 infected in neutropenia BALB/c mouse assessed as reduction in bacterial load in kidney at 10 to 20 mg/kg, ip administered staring from 2 hrs post infection and measured 8 hrs post-infected; assay type: functional, organism-based; settings: dose 10-20 mg/kg, time 6.0 hrs
Staphylococcus aureus [26] = test: Antimicrobial activity against Staphylococcus aureus ATCC 25923 infected in neutropenia BALB/c mouse assessed as reduction in bacterial load in liver at 10 to 20 mg/kg, ip administered staring from 2 hrs post infection and measured 8 hrs post-infected; assay type: functional, organism-based; settings: dose 10-20 mg/kg, time 6.0 hrs
Staphylococcus aureus [27] = test: Antimicrobial activity against Staphylococcus aureus ATCC 25923 infected in neutropenia BALB/c mouse assessed as reduction in lung bacterial load at 10 mg/kg, ip administered staring from 2 hrs post infection and measured 8 hrs post-infected in presence of ciprofloxacin; assay type: functional, organism-based; settings: time 6.0 hrs
Staphylococcus aureus [28] = test: Antimicrobial activity against Staphylococcus aureus ATCC 25923 infected in neutropenia BALB/c mouse assessed as reduction in bacterial load in spleen at 10 mg/kg, ip administered staring from 2 hrs post infection and measured 8 hrs post-infected in presence of ciprofloxacin; assay type: functional, organism-based; settings: time 6.0 hrs
Staphylococcus aureus [29] = test: Antimicrobial activity against Staphylococcus aureus ATCC 25923 infected in neutropenia BALB/c mouse assessed as reduction in bacterial load in liver at 10 mg/kg, ip administered staring from 2 hrs post infection and measured 8 hrs post-infected in presence of ciprofloxacin; assay type: functional, organism-based; settings: time 6.0 hrs
Mus musculus [30] = test: Antiinflammatory activity in Staphylococcus aureus ATCC 25923 infected neutropenia BALB/c mouse assessed as reduction in TNFalpha level in serum at 10 to 20 mg/kg, ip administered staring from 2 hrs post infection and measured 8 hrs post-infected; assay type: functional, organism-based; settings: dose 10-20 mg/kg, time 6.0 hrs
Mus musculus [31] = test: Antiinflammatory activity in Staphylococcus aureus ATCC 25923 infected neutropenia BALB/c mouse assessed as reduction in TNFalpha level in serum at 10 mg/kg, ip administered staring from 2 hrs post infection and measured 8 hrs post-infected in presence of ciprofloxacin; assay type: functional, organism-based; settings: time 6.0 hrs

With `CCCCCCCCCCCC(=O)N[C@@H](CCCNC(=N)N)C(=O)N[C@@H](CCCNC(=N)N)C(=O)N[C@@H](Cc1c[nH]c2ccccc12)C(N)=O` (Lauroyl-Arg-Arg-Trp-NH2) the MIC (Staphylococcus aureus [1]) was 2 µM (≈ 1.4 µg/mL), the remaining at 6 h [2] was 70% and the Activity (Staphylococcus aureus [3]) was “Active”. The Activity (Staphylococcus aureus [4]) was “Active”, the Activity (Staphylococcus aureus [5]) was “Active” and the Activity (Staphylococcus aureus [6]) was “inactive”. For the same molecule, the Activity (Staphylococcus aureus [7]) was “Active”, the Activity (Cell membrane [8]) was “Dose-dependent effect” and the Activity (Cell membrane [9]) was 77.2%. The Activity (HEK-293T) was “Toxic”.
With `CCCCCCCCCCCCCC(=O)N[C@@H](CCCNC(=N)N)C(=O)N[C@@H](Cc1c[nH]c2ccccc12)C(=O)N[C@@H](Cc1c[nH]c2ccccc12)C(N)=O` (Myristoyl-Arg-Trp-Trp-NH2) the MIC (Staphylococcus aureus [1]) was 4 µM (≈ 3.02 µg/mL), the metabolised at 6 h [10] was 70% and the Activity (Staphylococcus aureus [11]) was “Active”. The Activity (Staphylococcus aureus [12]) was “Active”, the Activity (Staphylococcus aureus [13]) was “inactive” and the Activity (Staphylococcus aureus [7]) was “Active”. The Activity (Cell membrane [14]) was “Active”, the viability at 24 h, 128 µM [15] was > 80% and the Activity [16] was “Toxic”. For the same molecule, the Activity [17] was “Toxic”, the Activity [18] was “Toxic” and the Activity [19] was “Toxic”. The Activity [20] was “Non-Toxic”, the Activity [21] was “Toxic” and the Activity [22] was “Toxic”. The Activity (Staphylococcus aureus [23]) was “Active”, the Activity (Staphylococcus aureus [24]) was “Active” and the Activity (Staphylococcus aureus [25]) was “Active”. For the same molecule, the Activity (Staphylococcus aureus [26]) was “Active”, the Activity (Staphylococcus aureus [27]) was “Active” and the Activity (Staphylococcus aureus [28]) was “Active”. For the same molecule, the Activity (Staphylococcus aureus [29]) was “Active”, the Activity (Mus musculus [30]) was “Active” and the Activity (Mus musculus [31]) was “Active”.
